Measurements published in US6133443A, “Optically active 1,4-dihydropyridine derivatives and process for the preparation thereof” (Mercian Corporation, priority 1996, dated 2000).

What was measured:
physchem = conditions: deionized water
Method: (§1) The measurements were performed by mixing deionized water with a compound to be tested, subsequently stirring for 3 minutes using a electromagnetic vibrating stirrer, and determining a critical value (solubility) based on presence or absence of insoluble matter.

[1] = Test for solubility in water (deionized water, stirring 3 minutes, presence or absence of insoluble matter)
Method: as §1

Row | solubility at 0.05 h [1] | Structure (SMILES) | solubility at 0.05 h (physchem)
1 | – | COC(=O)C1=C(C)NC(C)=C(C(=O)OCCC[n+]2ccccc2)[C@H]1c1cccc([N+](=O)[O-])c1 [Example 2, 3-pyridiniumpropyl (4S)-1,4-dihydro-2,6-dimethyl-5-methoxycarbonyl-4-(3-nitrophenyl)-pyridine-3-carboxylate iodide] | ≥ 1000 µg/mL
2 | – | COC(=O)C1=C(C)NC(C)=C(C(=O)OCCC[n+]2ccncc2)[C@H]1c1cccc([N+](=O)[O-])c1 [Example 3, 3-pyraziniumpropyl (4S)-1,4-dihydro-2,6-dimethyl-5-methoxycarbonyl-4-(3-nitrophenyl)-pyridine-3-carboxylate iodide] | ≥ 1000 µg/mL
3 | – | COC(=O)C1=C(C)NC(C)=C(C(=O)OCCC[n+]2ccsc2)[C@H]1c1cccc([N+](=O)[O-])c1 [Example 4, 3-thiazoliumpropyl (4S)-1,4-dihydro-2,6-dimethyl-5-methoxycarbonyl-4-(3-nitrophenyl)-pyridine-3-carboxylate iodide] | ≥ 1000 µg/mL
4 | – | COC(=O)C1=C(C)NC(C)=C(C(=O)OCCC[n+]2ccccn2)[C@H]1c1cccc([N+](=O)[O-])c1 [Example 5, 3-pyridaziniumpropyl (4S)-1,4-dihydro-2,6-dimethyl-5-methoxycarbonyl-4-(3-nitrophenyl)-pyridine-3-carboxylate iodide] | ≥ 1000 µg/mL
5 | ≥ 1000 µg/mL | COC(=O)C1=C(C)NC(C)=C(C(=O)OCCC[n+]2ccn(C)c2)[C@H]1c1cccc([N+](=O)[O-])c1 [Example 6, 3-(1-methylimidazolium)propyl (4S)-1,4-dihydro-2,6-dimethyl-5-methoxycarbonyl-4-(3-nitrophenyl)-pyridine-3-carboxylate iodide] | –
6 | ≥ 1000 µg/mL | COC(=O)C1=C(C)NC(C)=C(C(=O)OCCC[n+]2cccc(C(=O)OC)c2)[C@H]1c1cccc([N+](=O)[O-])c1 [Example 7, 3-(3-methoxycarbonylpyridinium)propyl (4S)-1,4-dihydro-2,6-dimethyl-5-methoxycarbonyl-4-(3-nitrophenyl)-pyridine-3-carboxylate iodide] | –
7 | ≥ 1000 µg/mL | COC(=O)C1=C(C)NC(C)=C(C(=O)OCCC[n+]2cccc(C#N)c2)[C@H]1c1cccc([N+](=O)[O-])c1 [Example 8, 3-(3-cyanopyridinium)propyl (4S)-1,4-dihydro-2,6-dimethyl-5-methoxycarbonyl-4-(3-nitrophenyl)-pyridine-3-carboxylate iodide] | –
8 | ≥ 1000 µg/mL | COC(=O)C1=C(C)NC(C)=C(C(=O)OCCC[n+]2ccc(N(C)C)cc2)[C@H]1c1cccc([N+](=O)[O-])c1 [Example 9, 3-(4-dimethylaminopyridinium)propyl (4S)-1,4-dihydro-2,6-dimethyl-5-methoxycarbonyl-4-(3-nitrophenyl)-pyridine-3-carboxylate iodide] | –
9 | ≥ 1000 µg/mL | COC(=O)C1=C(C)NC(C)=C(C(=O)OCCC[n+]2cccc(C(N)=O)c2)[C@H]1c1cccc([N+](=O)[O-])c1 [Example 10, 3-(3-carbamoylpyridinium)propyl (4S)-1,4-dihydro-2,6-dimethyl-5-methoxycarbonyl-4-(3-nitrophenyl)-pyridine-3-carboxylate iodide] | –
10 | ≥ 1000 µg/mL | COC(=O)C1=C(C)NC(C)=C(C(=O)OCc2cccc[n+]2C)[C@H]1c1cccc([N+](=O)[O-])c1 [Example 11, 3-(1-methyl-2-pyridinium)methyl (4S)-1,4-dihydro-2,6-dimethyl-5-methoxycarbonyl-4-(3-nitrophenyl)-pyridine-3-carboxylate iodide] | –
11 | ≥ 1000 µg/mL | COC(=O)C1=C(C)NC(C)=C(C(=O)OCCCc2ccc[n+](C)c2)[C@H]1c1cccc([N+](=O)[O-])c1 [Example 12, 3-(1-methyl-3-pyridinium)propyl (4S)-1,4-dihydro-2,6-dimethyl-5-methoxycarbonyl-4-(3-nitrophenyl)-pyridine-3-carboxylate iodide] | –
